{"source": "paper PMC4564450", "about": "“Oral and inhaled p38 MAPK inhibitors: effects on inhaled LPS challenge in healthy subjects” (European Journal of Clinical Pharmacology, 2015)", "key": {"[1]": {"test_system": "IL-6, MCP-1, MIP1β, CC16, fibrinogen and CRP levels in plasma", "assay": "Inhaled LPS challenge: plasma protein biomarkers", "type": "in vivo, human", "conditions": "study 3", "protocol": "Blood samples were obtained in studies 2 and 3 to obtain plasma measurements of IL-6, MCP-1, MIP1β, CC16, fibrinogen and CRP levels; pre-dose and 6 h post-LPS samples were used for statistical analysis. This coincided with the timings of sputum measurements of inflammation biomarkers.\nSystemic biomarkers were analysed using a similar mixed effects model; these models also adjusted for pre-dose baseline values, which were obtained 24 h prior to LPS challenge in study 2 and 30 min prior to LPS challenge in study 3."}, "[2]": {"set-up": "method as in PMID 12373268", "conditions": "single inhaled dose; cited from earlier work"}, "[3]": {"test_system": "IL-6, MPO, MCP-1 and MIP-1β in sputum supernatant", "assay": "Inhaled LPS challenge: sputum supernatant protein biomarkers", "type": "in vivo, human", "conditions": "study 3", "protocol": "A baseline sputum sample was obtained within 14 days of the first study period when subjects were administered a single dose of randomised treatment. […] Induced sputum was obtained 6 h later to coincide with the maximal inflammatory response caused by inhaled LPS. A washout period of at least 21 days followed, with subjects returning after 14 days of the washout period for induced sputum sampling; this was performed to ensure that the total cell count, total neutrophil count and total macrophage count were within the range of −80 to +100 % of the screening values. […] If these criteria were not met, then up to two repeat visits to obtain sputum were allowed, with at least 4 days between sputum inductions. The next randomised treatment day was scheduled at least 4 days after sputum induction and was identical to the first treatment day.\nSputum was induced using normal saline after inhalation of salbutamol, and processing was performed using dithiothreitol (DTT) as previously described [20]. The supernatants were stored at −80 °C for later analysis, while cells were used to produce cytoslides (Cytospin 4, Shandon, Runcorn, UK) for differential cell counting and immunocytochemistry. Cytoslides for differential cell count were fixed in methanol (Sigma) and then stained with Rapi-Diff® (GCC Diagnostics, Sandyhurst, UK) or Wright-modified Giemsa (Accustatin WG-18, Sigma-Aldrich); a minimum of 400 non-squamous cells were counted and differential cell counts obtained as percentage of total non-squamous cells. Cell viability was analysed by trypan blue exclusion. Cytoslides with % squamous cell counts <20 % were deemed to be of acceptable quality for differential cell counting. Unfixed cytoslides were wrapped in aluminium foil and stored frozen at −80 °C for immunocytochemistry.\nIn studies 1 and 2, sputum supernatants were analysed for interleukin 6 (IL-6), myeloperoxidase (MPO), monocyte chemotactic protein-1 (MCP-1) and macrophage inflammatory protein-1β (MIP-1 β), using electrochemiluminescent immunoassays (ECLIA) or enzyme-linked immunosorbent assays (ELISA); the manufacturers are listed in the online supplement. In study 3, sputum supernatants were analysed for IL-6, MCP-1 and MIP-1β by the same method."}, "[4]": {"assay": "Plasma pharmacokinetics (sparse sampling)", "type": "in vivo, human", "conditions": "study 3, fluticasone 500 μg inhaled"}, "[5]": {"test_system": "sputum neutrophils and macrophages after inhaled LPS", "assay": "Inhaled LPS challenge in healthy subjects: induced sputum cell counts", "type": "in vivo, human", "conditions": "study 3", "experimental": "Three randomised, double-blind, placebo-controlled crossover studies were performed; the effects of a single dose of active treatment was investigated in all three studies. […] Studies 2 and 3 were conducted at two UK centres: Quintiles Drug Research Unit, London, and Medicines Evaluation Unit, Manchester. […] The studies were performed during the following time periods: study 1, Sep 2006–Mar 2008; study 2, Jan 2011–Dec 2011; and study 3, Jul 2011–Jan 2012. The design of all three studies was similar. A baseline sputum sample was obtained within 14 days of the first study period when subjects were administered a single dose of randomised treatment. […] Induced sputum was obtained 6 h later to coincide with the maximal inflammatory response caused by inhaled LPS. […] This criterion was used to ensure that sputum cell counts after LPS challenge had returned to close to the original baseline values; this was done to reduce data variability between treatment periods. […] For each challenge, a 1-mg vial of lyophilised LPS (Escherichia coli serotype O26:B6, ref. L-2654, Sigma-Aldrich, Dorset, UK) was diluted with 4 mL of 0.9 % w/v sodium chloride. The reconstitution produced a 0.25 mg/mL solution, of which 2 mL was placed into the pre-calibrated dosimeter pot and administered via five inhalations from a breath-activated dosimeter (Mefar dosimeter MB3, Brescia, Italy). Each inhalation was performed over 3 s with a 6-s breath hold. […] Sputum was induced using normal saline after inhalation of salbutamol, and processing was performed using dithiothreitol (DTT) as previously described. The supernatants were stored at −80 °C for later analysis, while cells were used to produce cytoslides (Cytospin 4, Shandon, Runcorn, UK) for differential cell counting and immunocytochemistry. […] Cell viability was analysed by trypan blue exclusion. Cytoslides with % squamous cell counts <20 % were deemed to be of acceptable quality for differential cell counting. Unfixed cytoslides were wrapped in aluminium foil and stored frozen at −80 °C for immunocytochemistry. Sputum neutrophil percentage was the primary endpoint for all three studies. The neutrophil percentage was modelled using a mixed effects analysis of covariance (ANCOVA) model appropriate for a two-period, two-treatment or three-period, three-treatment crossover design. The fixed effects in the model were treatment and period. Subjects were modelled as a random effect. Additionally, the period-specific baseline was modelled as a covariate. This model was used for all sputum inflammatory markers, including the immunohistocytochemistry, where cell counts were log transformed before analyzing the data and percent differentials were not transformed. […] Ninety percent confidence intervals of the difference (non-transformed data) or the ratio (log-transformed data) were constructed based on the ANCOVA model."}, "[6]": {"test_system": "airway inflammation after LPS challenge", "set-up": "method as in PMID 17045826", "conditions": "oral, 6-day treatment; cited from earlier work"}, "[7]": {"conditions": "oral, 12-week treatment; cited from earlier work"}, "[8]": {"conditions": "fluticasone 500 μg inhaled, 6 hrs post LPS"}, "[9]": {"conditions": "fluticasone propionate 500 μg inhaled"}, "[10]": {"conditions": "fluticasone 500 μg inhaled, post LPS"}, "[11]": {"conditions": "fluticasone 500 μg inhaled, post LPS, ANCOVA model mean"}}}
{"compound": "CCC(=O)O[C@]1(C(=O)SCF)[C@H](C)C[C@H]2[C@@H]3C[C@H](F)C4=CC(=O)C=C[C@]4(C)[C@@]3(F)[C@@H](O)C[C@@]21C", "note": "[fluticasone propionate, reference compound]", "values": [{"measurement": "Plasma CC16, mean", "setting": "[1]; [8]", "value": 10.51, "unit": "ng/mL"}, {"measurement": "Plasma CRP, mean", "setting": "[1]; [8]", "value": 708.10, "unit": "ng/mL"}, {"measurement": "Plasma Fibrinogen, mean", "setting": "[1]; [8]", "value": 2058.00, "unit": "µg/mL"}, {"measurement": "Plasma IL-6, mean", "setting": "[1]; [8]", "value": 23.30, "unit": "pg/mL"}, {"measurement": "Plasma MCP-1, mean", "setting": "[1]; [8]", "value": 401.70, "unit": "pg/mL"}, {"measurement": "Plasma MIP-1β, mean", "setting": "[1]; [8]", "value": 76.95, "unit": "pg/mL"}, {"measurement": "systemic biomarkers compared to placebo", "setting": "[1]; [9]", "value": "no effect"}, {"measurement": "effects of bronchial challenges in asthma", "setting": "[2]", "value": "significantly inhibit"}, {"measurement": "Sputum IL-6, mean", "setting": "[3]; [10]", "value": 200.97, "unit": "pg/mL"}, {"measurement": "Sputum MCP-1, mean", "setting": "[3]; [10]", "value": 133.79, "unit": "pg/mL"}, {"measurement": "Sputum MIP-1β, mean", "setting": "[3]; [10]", "value": 1157.87, "unit": "pg/mL"}, {"measurement": "sputum cytokine measurements compared to placebo", "setting": "[3]; [9]", "value": "no effects"}, {"measurement": "Plasma concentration", "setting": "[4]; 1.5 h", "value": "56.0 (29.4) pg/mL"}, {"measurement": "Plasma concentration", "setting": "[4]; 6.5 h", "value": "37.31 (15.1) pg/mL"}, {"measurement": "Mean (SD) sputum neutrophil percentage", "setting": "[5]; fluticasone 500 μg inhaled single dose, 6 h post-LPS", "value": "70.0 (12.9) %"}, {"measurement": "Macrophage Differential in sputum", "setting": "[5]; [11]", "value": 27.53, "unit": "%"}, {"measurement": "Total Cell Count in sputum", "setting": "[5]; [11]", "value": "3.02e+06", "unit": "g⁻¹"}, {"measurement": "Total Macrophage Count in sputum", "setting": "[5]; [11]", "value": 820000, "unit": "g⁻¹"}, {"measurement": "Total Neutrophil Count in sputum", "setting": "[5]; [11]", "value": "2.04e+06", "unit": "g⁻¹"}, {"measurement": "sputum neutrophil percentage post-LPS challenge compared to placebo", "setting": "[5]; fluticasone propionate 500 μg inhaled single dose, p = 0.55", "value": "not changed significantly"}, {"measurement": "Total Cell Count in sputum, Ratio of Means active/placebo", "setting": "[5]; post LPS", "value": 0.90}, {"measurement": "Total Macrophage Count in sputum, Ratio of Means active/placebo", "setting": "[5]; post LPS", "value": 0.93}, {"measurement": "Total Neutrophil Count in sputum, Ratio of Means active/placebo", "setting": "[5]; post LPS", "value": "no effects"}, {"measurement": "Macrophage Differential in sputum, difference between the active treatment mean and the placebo mean", "setting": "[5]; post LPS, footnote: difference, not ratio", "value": 2.04, "unit": "%"}, {"measurement": "Total Neutrophil Count in sputum, Ratio of Means active/placebo", "setting": "[5]; post LPS, listed as Fluticasone", "value": 0.66}]}
{"compound": "C[C@]12C=CC(=O)C=C1CC[C@@H]1[C@@H]2[C@@H](O)C[C@@]2(C)[C@H]1CC[C@]2(O)C(=O)CO", "note": "[prednisolone]", "values": [{"measurement": "airway inflammation in an LPS challenge study", "setting": "[6]", "value": "no effect"}, {"measurement": "plasma CRP levels in an LPS challenge study", "setting": "[6]", "value": "suppressed"}]}
{"compound": "Cc1c(F)cc(C(=O)NC2CC2)cc1-c1ccc(C(=O)NCC(C)(C)C)cn1", "note": "[losmapimod, reference compound]", "values": [{"measurement": "sputum neutrophil counts in COPD patients", "setting": "[7]", "value": "failed to reduce"}]}
